From patent publication US20230381142A1, “ANTILEISHMANIAL COMPOUNDS, COMPOSITIONS AND USE THEREOF” (TRUSTEES OF BOSTON UNIVERSITY, priority 2022, published 2023)
Read-outs that look alike come from different tables or passages of the source.

Assays:
[1] = system: L. donovani intracellular amastigotes in B10R cells; assay: UCSD L. donovani infection assay (Assay Conditions D); type: cell-based; conditions: B10R cells; for L. donovani amastigotes EC75 (B10R cells): footnote d
Method: (§1) Assay Conditions D: B10R cells (CVCL_0155) were seeded at 300 cells/well, and L. donovani WT promastigotes in stationary phase (7th day after passage) were added at 6,000 parasites/well (ratio of 20 parasites/cell). Both cells and parasites were seeded in DMEM High-Glucose medium (Gibco, cat. no. 11995065) containing 5% Fetal Bovine Serum (Sigma-Aldrich, cat. no. F2442) and 1% Penicillin-Streptomycin (Gibco, cat. no. 15140122). Cells and parasites were incubated in the presence of the compounds for 72 h at 37° C. and 5% C02. Plates were then fixed with 4% formaldehyde solution for at least 1 h, then washed with 1×PBS and stained with 5 μg/mL DAPI. Plates were read using an ImageXpress microscope (Molecular Devices) and analyzed by MetaXpress software (Molecular Devices) using a custom module optimized for this assay. […] Compounds were tested in a 10-point 2-fold serial dilution in 3 technical replicates, and 2 biological replicates. After 72 h, plates were fixed and stained with DAPI as described above. Images were acquired on an ImageXpress microscope, and analyzed using the MetaXpress custom module.
as §1, with “Compounds were obtained as 0.2 μmoles of dried film for primary single point screening. Each compound was diluted in DMSO to 10 μM final testing concentration. These compounds were tested in 2 biological replicates. The compounds were pre-spotted onto 384-well assay plates in single concentration.” for “Assay Conditions D:”, “CO2.” for “C02.”, “module. The DRCs were plotted, half-effective concentration (EC50) and half-cytotoxic concentration (CC50) were calculated using GraphPad Prism Software, version 6.05 (GraphPad Software, San Diego, CA).” for “module.”

[2] = GSK inMac assay, host cell toxicity readout (LD MAC); type: cell-based, human; conditions: human
Method: (§2) The intramacrophage Leishmania donovani activity assay (LD AMMAC) at GlaxoSmithKline was performed as described.
(§3) Given the literature precedents described above and the apparent narrow tolerance for R^3 substitutions observed in the primary screen compounds, a thorough and methodical assessment was undertaken of tolerated groups at the three points of diversity (R^1/R^2/R^3) for the core. At this stage of the project, all analogues were assessed using a battery of assays performed in-house at GlaxoSmithKline. For antileishmanial activity, GSK's inMac assay was utilized. This assay provides two readouts of compound potency: average number of intracellular amastigotes per infected cell (AMMAC) EC50, percentage of infected cells per well (INFCELL) EC50, as well as a toxicity output derived from the number of host cells (MAC EC50). In addition, compounds were assessed for toxicity against HepG2 cells (HEPG2 EC50). Here, AMMAC EC50 values were focused on for relative potency assessments. […] It should be noted that for all compounds assessed in this project, the measured toxicity against THP-1 macrophages either equaled or exceeded that of HepG2 hepatocytes, therefore the MAC SI is used here as the more conservative estimate of therapeutic index.

[3] = system: L. donovani intracellular amastigotes infecting THP-1 macrophages; assay: GSK intramacrophage L. donovani assay (LD AMMAC, inMac; Assay Conditions C); type: cell-based; conditions: Leishmania donovani; THP-1 cells; values marked c; read-out: L. donovani amastigotes EC50 (THP-1 cells)
Method: Assay Conditions C: The intramacrophage Leishmania donovani activity assay was performed as described in Antimicrob Agents Chemother (2013) 57(7):2913-22.
as §2, §3

[4] = footnote c, read-out: THP-1 Host Cell CC50

SMILES	L. donovani amastigotes EC75 (μM, B10R cells) [1] [µM]	other results
Cc1ccsc1C1c2c(CC(C)C)n[nH]c2C(=O)N1c1ccn(C)n1 (stereo not shown) [BUCMD00660]	>10	–
CC(C)Cc1n[nH]c2c1C(c1ccccc1C(F)(F)F)N(c1ccn(C)n1)C2=O (stereo not shown) [BUCMD00661]	>10	–
CC(C)Cc1n[nH]c2c1C(c1sccc1Br)N(c1ccn(C)n1)C2=O (stereo not shown) [BUCMD00662]	>10	–
CCn1cc(N2C(=O)c3[nH]nc(CC(C)C)c3C2c2ccc(F)cc2C)cn1 (stereo not shown) [BUCMD00663]	4.0	–
CCn1cc(N2C(=O)c3[nH]nc(CC(C)C)c3C2c2ccc(Br)cc2F)cn1 (stereo not shown) [BUCMD00664]	>10	–
CCn1cc(N2C(=O)c3[nH]nc(CC(C)C)c3C2c2ccc(F)cc2Cl)cn1 (stereo not shown) [BUCMD00665]	>10	–
CCn1cc(N2C(=O)c3[nH]nc(CC(C)C)c3C2c2ccc(Cl)cc2F)cn1 (stereo not shown) [BUCMD00666]	>10	–
CCn1cc(N2C(=O)c3[nH]nc(CC(C)C)c3C2c2ccccc2C)cn1 (stereo not shown) [BUCMD00667]	>10	–
CCn1cc(N2C(=O)c3[nH]nc(CC(C)C)c3C2c2ccccc2Cl)cn1 (stereo not shown) [BUCMD00668]	5.8	–
CCn1cc(N2C(=O)c3[nH]nc(CC(C)C)c3C2c2ccc(F)cc2Br)cn1 (stereo not shown) [BUCMD00669]	–	L. donovani amastigotes EC75 (B10R cells) [1]: 0.7 µM
CCn1cc(N2C(=O)c3[nH]nc(CC(C)C)c3C2c2ccc(F)cc2F)cn1 (stereo not shown) [BUCMD00670]	>10	–
CCn1cc(N2C(=O)c3[nH]nc(CC(C)C)c3C2c2sccc2C)cn1 (stereo not shown) [BUCMD00672]	6.9	–
CC(C)Cc1n[nH]c2c1C(c1ccc(F)cc1Cl)N(c1cnn(C(C)C)c1)C2=O (stereo not shown) [BUCMD00674]	10.0	–
CC(C)Cc1n[nH]c2c1C(c1ccc(Cl)cc1F)N(c1cnn(C(C)C)c1)C2=O (stereo not shown) [BUCMD00675]	>10	–
CC(C)Cc1n[nH]c2c1C(c1ccccc1Cl)N(c1cnn(C(C)C)c1)C2=O (stereo not shown) [BUCMD00676]	>10	–
Cc1ccccc1C1c2c(CC(C)C)n[nH]c2C(=O)N1c1cnn(C(C)C)c1 (stereo not shown) [BUCMD00677]	>10	–
CC(C)Cc1n[nH]c2c1C(c1ccc(F)cc1F)N(c1cnn(C(C)C)c1)C2=O (stereo not shown) [BUCMD00678]	>10	–
CC(C)Cc1n[nH]c2c1C(c1ccccc1C(F)(F)F)N(c1cnn(C(C)C)c1)C2=O (stereo not shown) [BUCMD00679]	10.4	–
Cc1ccsc1C1c2c(CC(C)C)n[nH]c2C(=O)N1c1cnn(C(C)C)c1 (stereo not shown) [BUCMD00680]	>10	–
Cc1cc(F)ccc1C1c2c(CC(C)C)n[nH]c2C(=O)N1c1cncc(F)c1 (stereo not shown) [BUCMD00693]	>10	–
CC(C)Cc1n[nH]c2c1C(c1ccc(Cl)cc1F)N(c1cncc(F)c1)C2=O (stereo not shown) [BUCMD00695]	–	L. donovani amastigotes EC75 (B10R cells) [1]: 0.5 µM
CC(C)Cc1n[nH]c2c1C(c1ccccc1Cl)N(c1cncc(F)c1)C2=O (stereo not shown) [BUCMD00696]	>10	–
Cc1ccccc1C1c2c(CC(C)C)n[nH]c2C(=O)N1c1cncc(F)c1 (stereo not shown) [BUCMD00697]	2.6	–

SMILES	L. donovani amastigotes EC75 (μM, B10R cells) [1] [µM]	other results
CC(C)Cc1n[nH]c2c1C(c1ccc(F)cc1F)N(c1cncc(F)c1)C2=O (stereo not shown) [BUCMD00698]	2.3	–
Cc1ccsc1C1c2c(CC(C)C)n[nH]c2C(=O)N1c1cncc(F)c1 (stereo not shown) [BUCMD00702]	7.3	–
CC(C)Cc1n[nH]c2c1C(c1ccccc1F)N(c1ccc(C(=O)N3CCCC3)cc1)C2=O (stereo not shown) [BUCMD00715]	>10	–
CC(C)Cc1n[nH]c2c1C(c1ccc(F)c(F)c1)N(c1ccc(C(=O)N3CCCC3)cc1)C2=O (stereo not shown) [BUCMD00716]	>10	–
CC(C)Cc1n[nH]c2c1C(c1ccccc1Cl)N(c1ccc(N3CCN(C)CC3)nc1)C2=O (stereo not shown) [BUCMD00720]	5.1	–
Cc1ccccc1C1c2c(CC(C)C)n[nH]c2C(=O)N1c1ccc(N2CCN(C)CC2)nc1 (stereo not shown) [BUCMD00721]	5.0	–
Cc1cc(F)ccc1C1c2c(CC(C)C)n[nH]c2C(=O)N1c1ccc(C(=O)N2CCCC2)cc1 (stereo not shown) [BUCMD00726]	>10	–
CC(C)Cc1n[nH]c2c1C(c1ccccc1Cl)N(c1ccc(C(=O)N3CCCC3)cc1)C2=O (stereo not shown) [BUCMD00727]	>10	–
COc1ncc(N2C(=O)c3[nH]nc(CC(C)C)c3C2c2ccc(Cl)cc2F)cc1F (stereo not shown) [BUCMD00731]	>10	–
COc1ncc(N2C(=O)c3[nH]nc(CC(C)C)c3C2c2ccccc2Cl)cc1F (stereo not shown) [BUCMD00732]	1.9	–
COc1ncc(N2C(=O)c3[nH]nc(CC(C)C)c3C2c2ccccc2C)cc1F (stereo not shown) [BUCMD00733]	1.0	–
COc1ncc(N2C(=O)c3[nH]nc(CC(C)C)c3C2c2ccc(F)cc2F)cc1F (stereo not shown) [BUCMD00734]	1.5	–
C#CCCCCOc1ccc(N2C(=O)c3[nH]nc(CC(C)C)c3C2c2ccc(F)cc2)cn1 (stereo not shown) [BUCMD00739]	>10	–
COc1ccc(N2C(=O)c3[nH]nc(CC(C)C)c3C2c2c(Cl)cccc2Cl)cc1 (stereo not shown) [BUCMD00797]	–	CC50 [2, 4]: 2.5 µM; EC50 [3]: 1 µM
CC(C)Cc1n[nH]c2c1C(c1ccccc1Br)N(CCN1CCCC1)C2=O (stereo not shown) [BUCMD00798]	–	CC50 [2, 4]: > 50 µM; EC50 [3]: 31.6 µM
CC(C)Cc1n[nH]c2c1C(c1ccccc1Cl)N(CCN1CCCC1)C2=O (stereo not shown) [BUCMD00799]	–	CC50 [2, 4]: > 50 µM; EC50 [3]: 20 µM
COc1ccc(N2C(=O)c3[nH]nc(CC(C)C)c3C2c2ccc(F)cc2C)cc1 (stereo not shown) [BUCMD00800]	–	CC50 [2, 4]: 25.1 µM; EC50 [3]: 0.5 µM
COc1ccc(N2C(=O)c3[nH]nc(CC(C)C)c3C2c2ccnnc2)cc1 (stereo not shown) [BUCMD00801]	–	CC50 [2, 4]: > 50 µM; EC50 [3]: > 50 µM
COc1ccc(N2C(=O)c3[nH]nc(CC(C)C)c3C2c2ccc(F)c(C(F)(F)F)c2)cc1 (stereo not shown) [BUCMD00802]	–	CC50 [2, 4]: 25.1 µM; EC50 [3]: 5 µM
COc1cc(N2C(=O)c3[nH]nc(CC(C)C)c3C2c2cccc(C(F)(F)F)c2)cc(OC)c1OC (stereo not shown) [BUCMD00803]	–	CC50 [2, 4]: 12.6 µM; EC50 [3]: 5 µM
CC(C)Cc1n[nH]c2c1C(c1cccc(C(F)(F)F)c1)N(c1ccc3ncnn3c1)C2=O (stereo not shown) [BUCMD00804]	–	CC50 [2, 4]: ≥ 50.1 µM; EC50 [3]: 7.9 µM
CC(C)Cc1n[nH]c2c1C(c1ccc(F)cc1)N(c1cccc(C#N)c1)C2=O (stereo not shown) [BUCMD00806]	–	CC50 [2, 4]: > 50 µM; EC50 [3]: 25.1 µM
COc1ccc(N2C(=O)c3c(c(CC(C)C)nn3C)C2c2ccc(Br)cc2)cc1 (stereo not shown) [CMLD006598]	–	CC50 ([2]; host THP-1 cells): ≥ 50.1 µM
